The record followed here is patent publication US20250163104A1, “MACROCYCLIC IMMUNOMODULATORS” (priority 2021, published 2025).

For this assay, the target named is T1, human PD-1 / PD-L1-Ig binding on Jurkat cell line over-expressing human PD-1 (Jurkat-PD-1) (Homo sapiens, UniProt Q15116).
T1 construct: expressed in transfected cells; host or cells: Jurkat
Put plainly: Jurkat-PD-1 Cell Binding High-Content Screening Assay (CBA). Particulars: Jurkat-PD-1 cells, PE-labeled PD-L1-Ig 20 nM final; read-out: Jurkat HPD1_PDL1 IC50. It is filed as cell-based. A digest of the protocol: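 Compounds were preincubated with Jurkat-hPD-1 cells in DMEM plus 10% fetal calf serum for 2 h at 37° C. Phycoerythrin-labeled PD-L1-Ig (20 nM final) was then added for 1 hour. Cells were fixed in 4% paraformaldehyde with Hoechst 33342, and bound fluorescence was quantified by high-content imaging.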

Where a SMILES comes first, the peptide text is derived from it. Bridges are numbered along the chain shown (N, C = ends). [ ]: non-standard residue; d: D form. The star is where a group is joined. Phe(3-CF3) = N[C@@H](Cc1cccc(C(F)(F)F)c1)C(=O)O; Ala(morpholin-4-yl) = N[C@@H](CN1CCOCC1)C(=O)O; Phe(4-CONH2) = NC(=O)c1ccc(C[C@H](N)C(=O)O)cc1; Phe(4-COOH) = N[C@@H](Cc1ccc(C(=O)O)cc1)C(=O)O; Bip = N[C@@H](Cc1ccc(-c2ccccc2)cc1)C(=O)O; Phe(4-NH2) = Nc1ccc(C[C@H](N)C(=O)O)cc1; Phe(3-Me) = Cc1cccc(C[C@H](N)C(=O)O)c1; Val(3-OH) = CC(C)(O)[C@H](N)C(=O)O; 4Pal = N[C@@H](Cc1ccncc1)C(=O)O; Cha = N[C@@H](CC1CCCCC1)C(=O)O; Carboxymethyl = O=C(O)C*; Nle = CCCC[C@H](N)C(=O)O; Orn = NCCC[C@H](N)C(=O)O; Pra = C#CC[C@H](N)C(=O)O; Dab = NCC[C@H](N)C(=O)O; Dap = NC[C@H](N)C(=O)O

T1 sequence (Q15116 25-288): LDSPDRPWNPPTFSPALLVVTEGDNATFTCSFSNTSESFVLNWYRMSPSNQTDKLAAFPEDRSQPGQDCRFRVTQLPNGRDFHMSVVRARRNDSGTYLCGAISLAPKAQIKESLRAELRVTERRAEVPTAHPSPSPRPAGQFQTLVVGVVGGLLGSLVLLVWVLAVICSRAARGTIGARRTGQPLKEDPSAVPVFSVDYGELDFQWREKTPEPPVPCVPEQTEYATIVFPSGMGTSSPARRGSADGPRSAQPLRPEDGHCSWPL

For orientation: IC50 means the point on the concentration scale where inhibition reaches its midpoint. `C#CC[C@H](NC(=O)[C@H](CCN)NC(=O)[C@@H]1CSCC(=O)N[C@@H](Cc2ccncc2)C(=O)N[C@@H](Cc2ccc(OCC(=O)O)cc2)C(=O)N[C@@H](CC(=O)O)C(=O)N[C@@H](Cc2cccc(C)c2)C(=O)N[C@@H](Cc2ccc(OCC(=O)O)cc2)C(=O)N[C@@H](Cc2ccc(-c3ccccc3)cc2)C(=O)N[C@@H](Cc2ccc(OCC(=O)O)cc2)C(=O)N[C@@H](CCCN)C(=O)N[C@H](CC(C)C)C(=O)N[C@@H](CCN)C(=O)N[C@@H](CC2CCCCC2)C(=O)N[C@@H](C(C)(C)O)C(=O)N[C@@H](CO)C(=O)N1)C(=O)O` [Compound 2317] ({CH2CO}-[4Pal]Y(Carboxymethyl)D[Phe(3-Me)]Y(Carboxymethyl)[Bip]Y(Carboxymethyl)[Orn][dL][Dab][Cha][Val(3-OH)]SC[Dab][Pra]-OH; thioether N-14): the IC50 turned out to be 576 nM.

Take `CC(C)C[C@H]1NC(=O)[C@H](CCCN)NC(=O)[C@H](Cc2ccc(C(=O)O)cc2)NC(=O)[C@H](Cc2ccc(-c3ccccc3)cc2)NC(=O)[C@H](Cc2ccc(N)cc2)NC(=O)[C@H](Cc2cccc(C(F)(F)F)c2)NC(=O)[C@H](CC(=O)O)NC(=O)[C@H](Cc2ccc(C(=O)O)cc2)NC(=O)[C@H](CN2CCOCC2)NC(=O)CSC[C@@H](C(=O)N[C@@H](CCN)C(N)=O)NC(=O)[C@H](CCC(=O)O)NC(=O)[C@H](C(C)C)NC(=O)[C@H](CC2CCCCC2)NC(=O)[C@H](CCN)NC1=O` [Example 2743] ({CH2CO}-[Ala(morpholin-4-yl)][Phe(4-COOH)]D[Phe(3-CF3)][Phe(4-NH2)][Bip][Phe(4-COOH)][Orn][dL][Dab][Cha]VEC[Dab]-NH2; thioether N-14): the half-maximal inhibitory concentration (IC50) amounted to 2.2 nM.

For the compound `CCCC[C@@H]1NC(=O)[C@H](CCN)NC(=O)[C@@H](CC(C)C)NC(=O)[C@H](CCCN)NC(=O)[C@H](C(C)C)NC(=O)[C@H](Cc2ccc(-c3ccccc3)cc2)NC(=O)[C@H](CC(C)C)NC(=O)[C@H](Cc2c[nH]c3ccccc23)NC(=O)[C@H](CC(=O)O)NC(=O)[C@H](Cc2ccc(OCC(=O)O)cc2)NC(=O)[C@H](Cc2ccc(OCC(=O)O)cc2)NC(=O)CSC[C@@H](C(=O)NCC(N)=O)NC(=O)[C@H](CO)NC(=O)[C@H](C(C)C)NC1=O` [Compound 1409] ({CH2CO}-Y(Carboxymethyl)Y(Carboxymethyl)DWL[Bip]V[Orn][dL][Dab][Nle]VSCG-NH2; thioether N-14), the 50% inhibitory concentration (IC50) was 16.8 nM.

For `CC(C)C[C@@H]1NC(=O)[C@H](Cc2c[nH]c3ccccc23)NC(=O)[C@H](CC(=O)O)NC(=O)[C@H](Cc2ccc(O)cc2)NC(=O)[C@H](Cc2ccccc2)NC(=O)CSC[C@@H](C(=O)N[C@@H](C)C(N)=O)NC(=O)[C@H]([C@@H](C)O)NC(=O)[C@H](C(C)C)NC(=O)[C@H](CC(C)C)NC(=O)[C@H](CCN)NC(=O)[C@@H](C)NC(=O)[C@H](CCN)NC(=O)[C@H](C(C)C)NC(=O)[C@H](Cc2ccc(-c3ccccc3)cc2)NC1=O` [Compound 1105] ({CH2CO}-FYDWL[Bip]V[Dab][dA][Dab]LVTCA-NH2; thioether N-14), the half-maximal inhibitory concentration (IC50) came to 102 nM.

Regarding `Cc1cccc(C[C@@H]2NC(=O)[C@H](CC(=O)O)NC(=O)[C@H](Cc3ccc(OCC(=O)O)cc3)NC(=O)[C@H](Cc3ccc(C(N)=O)cc3)NC(=O)CSC[C@@H](C(=O)N[C@@H](CCN)C(N)=O)NC(=O)[C@H](CCC(N)=O)NC(=O)[C@H](C(C)(C)O)NC(=O)[C@H](CC3CCCCC3)NC(=O)[C@H](CCN)NC(=O)[C@@H](CC(C)C)NC(=O)[C@H](CCCN)NC(=O)[C@H](Cc3ccc(OCC(=O)O)cc3)NC(=O)[C@H](Cc3ccc(-c4ccccc4)cc3)NC(=O)[C@H](Cc3ccc(OCC(=O)O)cc3)NC2=O)c1` [Compound 2069] ({CH2CO}-[Phe(4-CONH2)]Y(Carboxymethyl)D[Phe(3-Me)]Y(Carboxymethyl)[Bip]Y(Carboxymethyl)[Orn][dL][Dab][Cha][Val(3-OH)]QC[Dab]-NH2; thioether N-14), the concentration for half-maximal inhibition (IC50) was 7.2 nM.

As for `C#CC[C@H](NC(=O)[C@H](CCN)NC(=O)[C@@H]1CSCC(=O)N[C@@H]([C@@H](C)O)C(=O)N[C@@H](Cc2ccc(OCC(=O)O)cc2)C(=O)N[C@@H](CC(=O)O)C(=O)N[C@@H](Cc2cccc(C)c2)C(=O)N[C@@H](Cc2ccc(C(=O)O)cc2)C(=O)N[C@@H](Cc2ccc(-c3ccccc3)cc2)C(=O)N[C@@H](Cc2ccc(C(=O)O)cc2)C(=O)N[C@@H](CCCN)C(=O)N[C@H](CC(C)C)C(=O)N[C@@H](CCN)C(=O)N[C@@H](CC2CCCCC2)C(=O)N[C@@H](C(C)C)C(=O)N[C@@H](CCC(=O)O)C(=O)N1)C(=O)O` [Compound 1824] ({CH2CO}-TY(Carboxymethyl)D[Phe(3-Me)][Phe(4-COOH)][Bip][Phe(4-COOH)][Orn][dL][Dab][Cha]VEC[Dab][Pra]-OH; thioether N-14), the IC50 worked out at 9.3 nM.

`CC(C)C[C@H]1NC(=O)[C@H](CCCN)NC(=O)[C@H](C(C)C)NC(=O)[C@H](Cc2ccc(-c3ccccc3)cc2)NC(=O)[C@H](C(C)C)NC(=O)[C@H](Cc2c[nH]c3ccccc23)NC(=O)[C@H](CC(=O)O)NC(=O)[C@H](Cc2ccc(OCC(=O)O)cc2)NC(=O)[C@H](Cc2ccc(OCC(=O)O)cc2)NC(=O)CSC[C@@H](C(=O)N[C@@H](C)C(N)=O)NC(=O)[C@H](CCCCN)NC(=O)[C@H](C(C)C)NC(=O)[C@H](CC2CCCCC2)NC(=O)[C@H](CCN)NC1=O` [Compound 1746] ({CH2CO}-Y(Carboxymethyl)Y(Carboxymethyl)DWV[Bip]V[Orn][dL][Dab][Cha]VKCA-NH2; thioether N-14): the IC50 is 8.8 nM.

`CC(C)C[C@H]1NC(=O)[C@H](CCCN)NC(=O)[C@H](C(C)C)NC(=O)[C@H](Cc2ccc(-c3ccccc3)cc2)NC(=O)[C@H](C(C)C)NC(=O)[C@H](Cc2c[nH]c3ccccc23)NC(=O)[C@H](CC(=O)O)NC(=O)[C@H](Cc2ccncc2)NC(=O)[C@H](Cc2ccc(OCC(=O)O)cc2)NC(=O)CSC[C@@H](C(=O)N[C@@H](C)C(N)=O)NC(=O)[C@H]([C@@H](C)O)NC(=O)[C@H](C(C)C)NC(=O)[C@H](CC2CCCCC2)NC(=O)[C@H](CCN)NC1=O` [Compound 1331]: the 50% inhibitory concentration (IC50) was found to be 6 nM.

Turning to `CC(C)[C@@H]1NC(=O)[C@H](Cc2c[nH]c3ccccc23)NC(=O)[C@H](CC(=O)O)NC(=O)[C@H](Cc2ccncc2)NC(=O)[C@H](CN)NC(=O)CSC[C@@H](C(=O)N[C@@H](C)C(N)=O)NC(=O)[C@H]([C@@H](C)O)NC(=O)[C@H](C(C)C)NC(=O)[C@H](CC2CCCCC2)NC(=O)[C@H](CCN)NC(=O)[C@@H](Cc2ccc(O)cc2)NC(=O)[C@H](CCCN)NC(=O)[C@H](CCC(=O)O)NC(=O)[C@H](Cc2ccc(-c3ccccc3)cc2)NC1=O` [Compound 1446] ({CH2CO}-[Dap][4Pal]DWV[Bip]E[Orn][dY][Dab][Cha]VTCA-NH2; thioether N-14), the 50% inhibitory concentration (IC50) came out at 64.5 nM.

Take `Cc1cccc(C[C@@H]2NC(=O)[C@H](CC(=O)O)NC(=O)[C@H](Cc3ccc(C(=O)O)cc3)NC(=O)[C@H](Cc3ccncc3)NC(=O)CSC[C@@H](C(=O)N[C@@H](CCN)C(N)=O)NC(=O)[C@H]([C@@H](C)O)NC(=O)[C@H](C(C)C)NC(=O)[C@H](CC3CCCCC3)NC(=O)[C@H](CCN)NC(=O)[C@@H](CC(C)C)NC(=O)[C@H](CCCN)NC(=O)[C@H](Cc3ccc(OCC(=O)O)cc3)NC(=O)[C@H](Cc3ccc(-c4ccccc4)cc3)NC(=O)[C@H](Cc3ccc(OCC(=O)O)cc3)NC2=O)c1` [Compound 2306] ({CH2CO}-[4Pal][Phe(4-COOH)]D[Phe(3-Me)]Y(Carboxymethyl)[Bip]Y(Carboxymethyl)[Orn][dL][Dab][Cha]VTC[Dab]-NH2; thioether N-14): the half-maximal inhibitory concentration (IC50) is 7.1 nM.

For `CC(C)C[C@@H]1NC(=O)[C@H](Cc2c[nH]c3ccccc23)NC(=O)[C@H](CC(=O)O)NC(=O)[C@H](Cc2ccc(O)cc2)NC(=O)[C@H](Cc2ccccc2)NC(=O)CSC[C@@H](C(=O)N[C@@H](C)C(N)=O)NC(=O)[C@H]([C@@H](C)O)NC(=O)[C@H](C(C)C)NC(=O)[C@H](CC(C)C)NC(=O)[C@H](CCN)NC(=O)[C@@H](CC(C)C)NC(=O)[C@H](CCN)NC(=O)[C@H](C(C)C)NC(=O)[C@H](Cc2ccc(-c3ccccc3)cc2)NC1=O` [Compound 1062] ({CH2CO}-FYDWL[Bip]V[Dab][dL][Dab]LVTCA-NH2; thioether N-14), the IC50 is 12.4 nM.

For `CC[C@H](C)[C@@H]1NC(=O)[C@H](Cc2c[nH]c3ccccc23)NC(=O)[C@H](CC(=O)O)NC(=O)[C@H](Cc2ccc(OCC(=O)O)cc2)NC(=O)[C@H](CN)NC(=O)CSC[C@@H](C(=O)N[C@@H](C)C(N)=O)NC(=O)[C@H]([C@@H](C)O)NC(=O)[C@H](C(C)C)NC(=O)[C@H](CC2CCCCC2)NC(=O)[C@H](CCN)NC(=O)[C@@H](CC(C)C)NC(=O)[C@H](CCCN)NC(=O)[C@H](CCC(=O)O)NC(=O)[C@H](Cc2ccc(-c3ccccc3)cc2)NC1=O` [Compound 1717] ({CH2CO}-[Dap]Y(Carboxymethyl)DWI[Bip]E[Orn][dL][Dab][Cha]VTCA-NH2; thioether N-14), the IC50 is 27.7 nM.

Turning to `C#CC[C@H](NC(=O)CNC(=O)[C@@H]1CSCC(=O)N[C@@H](CN)C(=O)N[C@@H](Cc2ccc(OCC(=O)O)cc2)C(=O)N[C@@H](CC(=O)O)C(=O)N[C@@H](Cc2cccc(C)c2)C(=O)N[C@@H](Cc2ccc(OCC(=O)O)cc2)C(=O)N[C@@H](Cc2ccc(-c3ccccc3)cc2)C(=O)N[C@@H](Cc2ccc(OCC(=O)O)cc2)C(=O)N[C@@H](CCCN)C(=O)N[C@H](CC(C)C)C(=O)N[C@@H](CCN)C(=O)N[C@@H](CC2CCCCC2)C(=O)N[C@@H](C(C)(C)O)C(=O)N[C@@H](CO)C(=O)N1)C(N)=O` [Compound 2321] ({CH2CO}-[Dap]Y(Carboxymethyl)D[Phe(3-Me)]Y(Carboxymethyl)[Bip]Y(Carboxymethyl)[Orn][dL][Dab][Cha][Val(3-OH)]SCG[Pra]-NH2; thioether N-14), the concentration for half-maximal inhibition (IC50) was determined as 19.3 nM.
